These results are taken from patent US20250122202A1, “EGFR INHIBITOR, PREPARATION METHOD THEREFOR AND USE THEREOF” (SHANDONG NEW TIME PHARMACEUTICAL CO., LTD., priority 2021, published 2025).

The subject of data set [1] is KC-0178:NCI-1975 EGFR-L858R/T790M/C797S. In words: Cell proliferation inhibition experiment (CCK-8), KC-0178. It is filed as cell-based. The note with it: Homo sapiens, 72 h. The source says: (§1) Inhibition rate %=[(A0−AS)/(A0−AC)]×100%.
The test system of a further data set is H1975 EGFR-L858R/T790M. Nature of the data set: Cell proliferation inhibition experiment (CCK-8), H1975. It is filed as cell-based. The note with it: Homo sapiens, NCI-H1975, 72 h.
Source text: as §1

The target in data set [2] is EGFR-Del19/T790M/C797S kinase (Homo sapiens, UniProt P00533, C797S/T790M, form not given). In words: In-vitro enzyme experiment 2 (HTRF kinase assay), EGFR Del19 T790M C797S. To be noted: read-out: enzyme inhibition IC50 (nM) EGFR-Del19/T790M/C797S. In kind it is biochemical. As for the experimental part: The specific experiment was as follows: • 1. […] Test method of activity of compound • a) a compound diluent was transferred to each well of an assay plate (784075, Greiner) using Echo 550; • b) the assay plate was sealed and centrifuged at 1,000 g for 1 min; • c) 2×EGFR (D770-N771 ins NPG T790M) was prepared in a 1× kinase buffer; • d) 5 μl of the 2×EGFR (D770-N771 ins NPG T790M) was added to a 384-well assay plate (784075, Greiner); • e) the assay plate was centrifuged at 1,000 g for 30 s and incubated at room temperature for 10 min; • f) 2× TK-substrate-biotin (2 μM) and ATP were added to the 1× kinase buffer and mixed; • g) the reaction was started after adding 5 μl of the TK-substrate-biotin (2 μM) and ATP mixture; • h) the assay plate was centrifuged at 1,000 g for 30 s; and the assay plate was sealed and incubated at room temperature for 40 min; • i) 4× Sa-XL 665 was prepared in an HTRF detection buffer; • j) 5 μl of the Sa-XL 665 and 5 μl of a TK-antibody-cryptate were added to each well of the assay plate; • k) the assay plate was centrifuged at 1,000 g for 30 s and incubated at room temperature for 1 h; and • l) fluorescence signals at 615 nm (cryptate) and 665 nm (XL665) were read on an Envision 2104 reader. • 3. Data analysis • 3.1 Calculation of ratio (665/615 nm) of each well • 3.2 Calculation of inhibition rate
Sequence of EGFR-Del19/T790M/C797S kinase (P00533 25-1210 T790M/C797S limits assumed, form open): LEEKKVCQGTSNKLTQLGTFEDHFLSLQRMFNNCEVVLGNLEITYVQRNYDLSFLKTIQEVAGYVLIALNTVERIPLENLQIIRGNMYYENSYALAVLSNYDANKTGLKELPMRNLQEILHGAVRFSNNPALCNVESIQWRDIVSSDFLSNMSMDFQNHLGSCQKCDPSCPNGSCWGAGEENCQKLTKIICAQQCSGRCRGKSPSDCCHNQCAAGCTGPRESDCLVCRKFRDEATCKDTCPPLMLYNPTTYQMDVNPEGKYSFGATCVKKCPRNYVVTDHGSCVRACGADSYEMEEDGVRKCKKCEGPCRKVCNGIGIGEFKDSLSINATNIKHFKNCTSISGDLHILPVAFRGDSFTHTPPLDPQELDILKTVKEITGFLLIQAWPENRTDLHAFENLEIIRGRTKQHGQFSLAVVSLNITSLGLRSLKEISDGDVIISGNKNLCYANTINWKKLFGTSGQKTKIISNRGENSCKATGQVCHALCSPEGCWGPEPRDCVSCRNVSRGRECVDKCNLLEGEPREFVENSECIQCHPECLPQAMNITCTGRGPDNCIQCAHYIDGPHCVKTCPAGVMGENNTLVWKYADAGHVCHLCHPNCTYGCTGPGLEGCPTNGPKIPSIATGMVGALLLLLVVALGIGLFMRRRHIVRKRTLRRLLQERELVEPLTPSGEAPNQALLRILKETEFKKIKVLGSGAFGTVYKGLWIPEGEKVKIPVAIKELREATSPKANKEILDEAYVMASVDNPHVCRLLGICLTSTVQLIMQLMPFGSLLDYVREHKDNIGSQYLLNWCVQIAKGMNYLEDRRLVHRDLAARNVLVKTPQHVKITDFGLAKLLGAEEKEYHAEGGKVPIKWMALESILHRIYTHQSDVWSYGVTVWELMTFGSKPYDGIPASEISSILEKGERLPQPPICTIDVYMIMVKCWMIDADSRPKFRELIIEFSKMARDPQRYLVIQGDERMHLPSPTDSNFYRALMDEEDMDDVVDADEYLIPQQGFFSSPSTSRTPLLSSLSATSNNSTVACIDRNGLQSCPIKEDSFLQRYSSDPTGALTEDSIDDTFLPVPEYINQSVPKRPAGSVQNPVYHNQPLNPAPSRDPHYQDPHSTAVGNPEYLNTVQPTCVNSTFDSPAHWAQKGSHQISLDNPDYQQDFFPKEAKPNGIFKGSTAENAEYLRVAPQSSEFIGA
[formula] • 3.3 Calculation of IC50 value of compound and drawing dose-effect curve of compound • IC50 values were calculated using GraphPad 6.0 by applying a non-linear regression curve (dose-effect relationship-variable slope) of the logarithm of the compound concentration versus the inhibition rate.
The preparation of the kinase buffer, the test method of the activity of the compound, and the data analysis referred to the relevant definitions in example 117, wherein step c) of the test method of the activity of the compound was replaced by preparing 2×EGFR Del19 T790M C797S in the 1× kinase buffer.
For orientation: TR-FRET usually uses a lanthanide donor and a delayed reading to cut background.

Data set [3] concerns KC-1474 cell subcutaneous transplantation tumor. In words: In-vivo drug efficacy study, KC-1474 cell subcutaneous transplantation tumor in NPG mice. To be noted: for tumor volume inhibition rate (TGITV) / tumor weight inhibition rate (TGITW): 39 days, end of experiment. As for the experimental part: Female SPF NPG mice weighed 19-22 g were used. The experimental animals were provided by Beijing Vitalstar Biotechnology Co., Ltd. with the experimental animal production license number SCXK (Jing) 2019-0002 and the experimental animal quality certification number of No.110341211100087928.
KC-1474 cells used in the experiment were cultured in a 5% CO2 37° C. incubator with an RPMI1640 medium supplemented with 10% FBS and […] of puromycin. Before the cells were continuously cultured for ten passages, the KC-1474 cells were adjusted to a concentration of 1×10^8/mL, and mixed with Matrigel at a volume ratio of 1:1, and the mixture was inoculated subcutaneously into the right lateral thorax of the NPG mice at 0.1 mL/mouse with 5×10^6 cells per mouse.
When the mean tumor volume of the mice reached about 100-130 mm^3, according to the tumor volume and weight, all the mice were randomly divided into […] group respectively: a model group (V), an example 60 compound oral administration group (po), an example 60 compound intravenous injection low-dose group (L), and an example 60 compound intravenous injection medium-dose group (M). The mice in all the groups were administrated once daily. The administration started on the day of the grouping and continued for 39 days. The mice in the model group were intravenously injected with the same volume of a solvent. The solvent was prepared by adding 2 g of polyethylene glycol-15 hydroxystearate (HS15) into 4 mL of dimethyl sulfoxide (DMSO), then adding 40 mL of purified water, and filtering an obtained mixture by using a 0.22-μm sterilizing filter. At the end of the experiment or the humane endpoint, the animals were euthanized using sodium pentobarbital for anesthesia.
Tumor volume was measured once during the grouping, once per week after the grouping using a vernier caliper, and before the euthanasia. A method for measuring the tumor volume was measuring the long diameter and the short diameter of a tumor using the vernier caliper.
The tumor volume was calculated by the formula: tumor volume=0.5×long diameter×short diameter^2.
(Ti: mean tumor volume of mice in the treatment groups on day i of the administration and T0: mean tumor volume of the mice in the treatment group on day 0 of the administration; and Vi: mean tumor volume of the mice in the model group on day i of the administration and V0: mean tumor volume of the mice in the model group on day 0 of the administration).
At the end of the experiment, the tumor tissue was stripped after the animals were euthanized, the tumor weight was weighed, and the tumor weight inhibition rate was calculated according to the following formula:
TGITW(%)=(Wmodel group−Wtreatment group)/Wmodel group×100%, wherein the W means tumor weight.
Original data was analyzed and the results were expressed as mean±standard deviation (mean±SD). At the same time, the tumor volume and the tumor weight were subjected to statistical analysis. AP<0.05 was considered to be a significant difference.

Data set [4] relates to KC-1474:PC-9 EGFR-Del19/T790M/C797S. In words: Cell proliferation inhibition experiment (CCK-8), KC-1474. In kind it is cell-based. To be noted: Homo sapiens, 72 h.
Source text: as §1

A further data set concerns A549 EGFR-WT. In words: Cell proliferation inhibition experiment (CCK-8), A549. To be noted: Homo sapiens, A549, 72 h, read-out: cell proliferation inhibition IC50 (μM) A549, 72 h, CCK-8.
Data set [5] relates to KC-1362 BaF3-EGFR D770-N771 ins NPG cells. Nature of the data set: Anti-proliferative activity on KC-1362 BaF3-EGFR D770-N771 ins NPG cells. In kind it is cell-based. The note with it: Ba/F3 EGFR.
Data set [6] has as its target EGFR D770-N771 ins NPG kinase (Homo sapiens (Human), UniProt P00533, INS770NPG). In words: In-vitro enzyme experiment 1 (HTRF kinase assay), D770-N771 ins NPG kinase. It is filed as biochemical.
The next data set concerns PC-9 EGFR-Del19. Nature of the data set: Cell proliferation inhibition experiment (CCK-8), PC-9. It is filed as cell-based. To be noted: Homo sapiens, 72 h.
Source text: as §1

Where two headings read alike, the source gives them in different places.

Sequence of EGFR D770-N771 ins NPG kinase (P00533 other isoform, or with tags, fused parts or gaps del 1-668/ins NPG behind 770 limits assumed): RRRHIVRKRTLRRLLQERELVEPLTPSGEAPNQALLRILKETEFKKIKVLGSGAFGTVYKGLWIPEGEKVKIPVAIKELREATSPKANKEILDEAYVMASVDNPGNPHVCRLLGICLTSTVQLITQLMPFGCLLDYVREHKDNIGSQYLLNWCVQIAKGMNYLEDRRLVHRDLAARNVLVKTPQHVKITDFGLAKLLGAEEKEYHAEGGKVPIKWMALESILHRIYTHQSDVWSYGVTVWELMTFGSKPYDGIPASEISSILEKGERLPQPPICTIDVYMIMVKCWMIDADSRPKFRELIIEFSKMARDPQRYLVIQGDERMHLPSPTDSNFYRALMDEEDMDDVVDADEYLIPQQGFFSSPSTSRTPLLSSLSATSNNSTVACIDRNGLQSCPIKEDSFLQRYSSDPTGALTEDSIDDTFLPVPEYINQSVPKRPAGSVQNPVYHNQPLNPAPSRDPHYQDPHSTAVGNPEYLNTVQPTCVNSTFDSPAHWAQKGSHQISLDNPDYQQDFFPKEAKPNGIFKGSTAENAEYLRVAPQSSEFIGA

For `CN1CCN(c2ccc(Nc3nc(N[C@H]4CC[C@@H](CO)CC4)c4c(C(=O)c5ccc(F)cc5)c[nH]c4n3)cc2)CC1` [Example 60], the IC50 is 1 to 2 µM in [1]; 0.1 to 1 µM in the data set with H1975 EGFR-L858R/T790M; less than 10 nM in [2]; less than 0.1 µM in data set [4]; 0.1 to 1 µM with A549 EGFR-WT; 0.23 µM in the data set on A549 EGFR-WT (Table 5 numeric). The figures for the IC50 (in data set [5]; in data set [6]; in the data set on PC-9 EGFR-Del19) were 70 nM, 2.82 nM and less than 0.1 µM, respectively. Further, the “tumor volume inhibition rate (TGITV)” value in [3] (L group, 3 mg/kg qd iv) turned out to be 31%; in data set [3] (M group, 10 mg/kg qd iv) it was 57%; in [3] (po group, 20 mg/kg qd po), 28%. Also, the “tumor weight inhibition rate (TGITW)” value in [3] (L group, 3 mg/kg qd iv) was 22%; in [3] (M group, 10 mg/kg qd iv), 61%; in data set [3] (po group, 20 mg/kg qd po), 21%. Also, the “animal condition during the administration and observation” value in data set [3] (all groups, qd for 39 days) is reported as “no diarrhea, vomiting, or rash”.
